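Cells were grown in 96-well plates and exposed to each compound for 48 hours at five concentrations; endpoints were interpolated linearly between bracketing concentrations, or set to the highest concentration if not reached. GI50 = concentration required for 50% inhibition of growth.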 The source made the active and inactive calls. No stated cut-off is given here; in the data, active = GI50 up to about 1.1 µM and inactive = higher.
Assays:
Assay in all cases: NCI tumour cell line growth inhibition, 48 h
[1] = test system: SK-OV-3
[2] = test system: SNB-75
[3] = test system: SF-539
[4] = test system: NCI/ADR-RES
[5] = test system: SK-MEL-2
[6] = test system: MDA-MB-435
[7] = test system: HCT-116
[8] = test system: UACC-62
[9] = test system: K562
[10] = test system: SNB-19
[11] = test system: SF-295
[12] = test system: CAKI-1
[13] = test system: MOLT-4
[14] = test system: OVCAR-4
[15] = test system: HCC 2998
[16] = test system: PC-3
[17] = test system: HL-60

## COc1cnc2cc(C(=O)O)c3ccccc3c2c1
[1]
  GI50: > 100 µM (inactive)
[2]
  GI50: 58.3 µM (inactive)
[3]
  GI50: > 100 µM (inactive)
[4]
  GI50: > 100 µM (inactive)
[5]
  GI50: > 100 µM (inactive)
[6]
  GI50: > 100 µM (inactive)
[7]
  GI50: > 100 µM (inactive)
[8]
  GI50: > 100 µM (inactive)
[9]
  GI50: > 100 µM (inactive)
[10]
  GI50: > 100 µM (inactive)
[11]
  GI50: > 100 µM (inactive)
[12]
  GI50: > 100 µM (inactive)
[13]
  GI50: > 100 µM (inactive)
[14]
  GI50: > 100 µM (inactive)
[15]
  GI50: > 100 µM (inactive)
[16]
  GI50: > 100 µM (inactive)
[17]
  GI50: > 100 µM (inactive)

## CS(=O)(=O)N1CC(CCl)c2ccc(NO)cc21 (stereo not given)
[1]
  GI50: 18.7 µM (inactive)
[2]
  GI50: 1.77 µM (inactive)
[3]
  GI50: 10.2 µM (inactive)
[4]
  GI50: 4.66 µM (inactive)
[5]
  GI50: 17.7 µM (inactive)
[6]
  GI50: 16.6 µM (inactive)
[7]
  GI50: 14.7 µM (inactive)
[8]
  GI50: 13.6 µM (inactive)
[9]
  GI50: 2.88 µM (inactive)
[10]
  GI50: 22.5 µM (inactive)
[11]
  GI50: 20 µM (inactive)
[12]
  GI50: 12.6 µM (inactive)
[13]
  GI50: 3.48 µM (inactive)
[14]
  GI50: 17.5 µM (inactive)
[15]
  GI50: 14.4 µM (inactive)
[16]
  GI50: 12 µM (inactive)
[17]
  GI50: 1.96 µM (inactive)

## CC(=O)O[C@H]1CC(C)(C)C(=C=C/C(C)=C/C=C/C=C/C=C(C)/C=C2C=C(/C=C/[C@@]34O[C@]3(C)C[C@@H](O)CC4(C)C)C(=O)O/2)[C@](C)(O)C1
[2]
  GI50: 10 µM (inactive)
[3]
  GI50: 17.8 µM (inactive)
[4]
  GI50: 5.93 µM (inactive)
[5]
  GI50: 3.31 µM (inactive)
[6]
  GI50: 14.8 µM (inactive)
[7]
  GI50: 5.33 µM (inactive)
[8]
  GI50: 7.93 µM (inactive)
[9]
  GI50: 10 µM (inactive)
[10]
  GI50: 30.6 µM (inactive)
[11]
  GI50: 13.5 µM (inactive)
[12]
  GI50: 30.8 µM (inactive)
[13]
  GI50: 3.85 µM (inactive)
[14]
  GI50: 4.75 µM (inactive)
[15]
  GI50: 20.7 µM (inactive)
[16]
  GI50: 4.22 µM (inactive)
[17]
  GI50: 1.78 µM (inactive)

## Sc1ccc2ccccc2c1CNCc1ccccc1
[1]
  GI50: 11.8 µM (inactive)
[2]
  GI50: 15.7 µM (inactive)
[3]
  GI50: 10 µM (inactive)
[4]
  GI50: 25.4 µM (inactive)
[5]
  GI50: 19.7 µM (inactive)
[6]
  GI50: 12.3 µM (inactive)
[7]
  GI50: 13.8 µM (inactive)
[8]
  GI50: 14.3 µM (inactive)
[9]
  GI50: 13.3 µM (inactive)
[10]
  GI50: 24.3 µM (inactive)
[11]
  GI50: 19.4 µM (inactive)
[12]
  GI50: 15.7 µM (inactive)
[13]
  GI50: 2.25 µM (inactive)
[14]
  GI50: 10.9 µM (inactive)
[15]
  GI50: > 100 µM (inactive)
[16]
  GI50: 18.8 µM (inactive)
[17]
  GI50: 5.77 µM (inactive)

## O=C([C@H](O)[C@@H](O)c1cccc(Cl)c1)C12CC3CC(CC(C3)C1)C2
[1]
  GI50: 8.71 µM (inactive)
[2]
  GI50: 1.72 µM (inactive)
[3]
  GI50: 1.77 µM (inactive)
[4]
  GI50: 2.27 µM (inactive)
[5]
  GI50: 1.95 µM (inactive)
[6]
  GI50: 2.58 µM (inactive)
[7]
  GI50: 1.86 µM (inactive)
[8]
  GI50: 1.73 µM (inactive)
[9]
  GI50: 2.98 µM (inactive)
[10]
  GI50: 1.82 µM (inactive)
[11]
  GI50: 3.15 µM (inactive)
[12]
  GI50: 2.08 µM (inactive)
[13]
  GI50: 2.84 µM (inactive)
[14]
  GI50: 2.4 µM (inactive)
[15]
  GI50: 2.11 µM (inactive)
[16]
  GI50: 1.87 µM (inactive)
[17]
  GI50: 0.483 µM (active)

## CC(C)(CCc1nc2ccccc2[nH]1)C(=O)O
[1]
  GI50: > 100 µM (inactive)
[2]
  GI50: > 100 µM (inactive)
[3]
  GI50: > 100 µM (inactive)
[4]
  GI50: > 100 µM (inactive)
[5]
  GI50: > 100 µM (inactive)
[6]
  GI50: > 100 µM (inactive)
[7]
  GI50: > 100 µM (inactive)
[8]
  GI50: > 100 µM (inactive)
[9]
  GI50: > 28 µM (inactive)
[10]
  GI50: > 100 µM (inactive)
[11]
  GI50: > 100 µM (inactive)
[12]
  GI50: > 100 µM (inactive)
[13]
  GI50: > 100 µM (inactive)
[14]
  GI50: > 100 µM (inactive)
[15]
  GI50: > 100 µM (inactive)
[16]
  GI50: > 100 µM (inactive)
[17]
  GI50: > 100 µM (inactive)

## O=C(NCCc1ccccc1)c1cc(/C=C/c2cc(O)ccc2O)ccc1O
[1]
  GI50: 13 µM (inactive)
[2]
  GI50: 5.57 µM (inactive)
[3]
  GI50: 2.38 µM (inactive)
[4]
  GI50: 3.43 µM (inactive)
[5]
  GI50: 3.57 µM (inactive)
[6]
  GI50: 3.96 µM (inactive)
[7]
  GI50: 1.81 µM (inactive)
[8]
  GI50: 2.03 µM (inactive)
[9]
  GI50: 2.59 µM (inactive)
[10]
  GI50: 6.71 µM (inactive)
[11]
  GI50: 15.9 µM (inactive)
[12]
  GI50: 2.94 µM (inactive)
[13]
  GI50: 2.52 µM (inactive)
[14]
  GI50: 2.27 µM (inactive)
[15]
  GI50: 10.1 µM (inactive)
[16]
  GI50: 3.56 µM (inactive)
[17]
  GI50: 2.12 µM (inactive)

## CCOC(=O)C1C(c2ccc3c(c2)OCO3)c2c(n[nH]c2O)CC1(C)O (stereo not given)
[2]
  GI50: > 100 µM (inactive)
[3]
  GI50: > 100 µM (inactive)
[4]
  GI50: > 100 µM (inactive)
[5]
  GI50: > 100 µM (inactive)
[6]
  GI50: > 100 µM (inactive)
[7]
  GI50: > 100 µM (inactive)
[8]
  GI50: > 100 µM (inactive)
[10]
  GI50: > 100 µM (inactive)
[11]
  GI50: > 100 µM (inactive)
[12]
  GI50: > 100 µM (inactive)
[13]
  GI50: > 100 µM (inactive)
[14]
  GI50: > 100 µM (inactive)
[15]
  GI50: > 100 µM (inactive)
[16]
  GI50: > 100 µM (inactive)
[17]
  GI50: > 100 µM (inactive)

## CC1(C)N=C2C(=O)c3c([nH]c4ccccc34)[C@]3(C)CCC1CC23 (stereo not given in full)
[2]
  GI50: > 6.25 µM (inactive)
[3]
  GI50: > 6.25 µM (inactive)
[4]
  GI50: > 6.25 µM (inactive)
[5]
  GI50: > 6.25 µM (inactive)
[6]
  GI50: > 6.25 µM (inactive)
[7]
  GI50: > 6.25 µM (inactive)
[9]
  GI50: > 6.25 µM (inactive)
[11]
  GI50: > 6.25 µM (inactive)
[12]
  GI50: > 6.25 µM (inactive)
[13]
  GI50: > 6.25 µM (inactive)
[14]
  GI50: > 6.25 µM (inactive)
[15]
  GI50: > 6.25 µM (inactive)
[16]
  GI50: > 6.25 µM (inactive)
[17]
  GI50: > 6.25 µM (inactive)

## COc1cccc(/N=C/c2cc(OC)c(OC)c(OC)c2)c1
[1]
  GI50: > 100 µM (inactive)
[2]
  GI50: > 100 µM (inactive)
[3]
  GI50: > 100 µM (inactive)
[4]
  GI50: > 100 µM (inactive)
[5]
  GI50: > 85.1 µM (inactive)
[6]
  GI50: 18.8 µM (inactive)
[7]
  GI50: > 100 µM (inactive)
[8]
  GI50: 1.75 µM (inactive)
[9]
  GI50: 3.58 µM (inactive)
[11]
  GI50: 69.8 µM (inactive)
[12]
  GI50: > 100 µM (inactive)
[13]
  GI50: > 72.1 µM (inactive)
[14]
  GI50: > 79.6 µM (inactive)
[15]
  GI50: > 88.9 µM (inactive)
[16]
  GI50: > 100 µM (inactive)
[17]
  GI50: > 100 µM (inactive)

## CC1(C)COC(c2cccc(C(O)c3ccc(Cl)cc3)c2)=N1 (stereo not given)
[1]
  GI50: 26.4 µM (inactive)
[2]
  GI50: 2.94 µM (inactive)
[3]
  GI50: 19.4 µM (inactive)
[4]
  GI50: 33.3 µM (inactive)
[5]
  GI50: 24.2 µM (inactive)
[6]
  GI50: 24.9 µM (inactive)
[7]
  GI50: 18.1 µM (inactive)
[8]
  GI50: 19 µM (inactive)
[9]
  GI50: 23.4 µM (inactive)
[10]
  GI50: 32.6 µM (inactive)
[12]
  GI50: 42.3 µM (inactive)
[13]
  GI50: 12.1 µM (inactive)
[14]
  GI50: 56.8 µM (inactive)
[15]
  GI50: 23.8 µM (inactive)
[16]
  GI50: 16.6 µM (inactive)
[17]
  GI50: 41 µM (inactive)

## CC(=O)O[C@H]1C(=O)[C@@]2(C)[C@H]([C@H](OC(=O)c3ccccc3)[C@]3(O)C[C@H](OC(=O)[C@H](O)[C@@H](NC(=O)c4ccccc4)c4cccc(N(C)C)c4)C(C)=C1C3(C)C)[C@]1(OC(C)=O)CO[C@@H]1C[C@@H]2O
[1]
  GI50: 0.105 µM (active)
[2]
  GI50: 1.01 µM (active)
[3]
  GI50: 0.0668 µM (active)
[4]
  GI50: > 28.2 µM (inactive)
[5]
  GI50: 0.0301 µM (active)
[6]
  GI50: 0.00893 µM (active)
[7]
  GI50: 0.0174 µM (active)
[8]
  GI50: 0.254 µM (active)
[9]
  GI50: 0.0324 µM (active)
[10]
  GI50: 0.148 µM (active)
[11]
  GI50: 0.142 µM (active)
[12]
  GI50: > 48.3 µM (inactive)
[13]
  GI50: 0.013 µM (active)
[15]
  GI50: 0.0315 µM (active)
[16]
  GI50: 0.209 µM (active)
[17]
  GI50: 0.0122 µM (active)

Source: ChEMBL document CHEMBL1201862, “PubChem BioAssay data set” (2004)
